Reference: patent US6472348B1, “Pyridone derivatives and herbicides” (Kumiai Chemical Industry Co., Ltd., priority 1996, dated 2002)

Key:
[1] = tested on: slender amaranth (Am); assay: Test Example 3: herbicidal effects by upland field foliage treatment; assay type: in vivo; design: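 grade of growth control; 5 = at least 90%; 4 = 70 to 90%; 3 = 50 to 70%; 2 = 30 to 50%; 1 = 10 to 30%; 0 = under 10%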; conditions: 100 g active ingredient per 10 ares, evaluated 14th day after treatment
Procedure, shortened: (§1)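 Greenhouse test, upland conditions: seeds sown in sand pots of 120 cm^2 area and overlaid with soil; 2 weeks growth; leaves treated; herbicidal injury graded on day 14 after treatment by fixed standards.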

[2] = tested on: rice flatsedge (Ci); assay: as above; assay type: in vivo; design: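 grade of growth control; 5 = at least 90%; 4 = 70 to 90%; 3 = 50 to 70%; 2 = 30 to 50%; 1 = 10 to 30%; 0 = under 10%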; conditions: 100 g active ingredient per 10 ares, evaluated 14th day after treatment
Procedure, shortened: as §1

[3] = tested on: barnyardgrass (Ec); assay: as above; assay type: in vivo; design: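 grade of growth control; 5 = at least 90%; 4 = 70 to 90%; 3 = 50 to 70%; 2 = 30 to 50%; 1 = 10 to 30%; 0 = under 10%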; conditions: 100 g active ingredient per 10 ares, evaluated 14th day after treatment
Procedure, shortened: as §1

[4] = tested on: Diaitaria ciliaris (Di); assay: as above; assay type: in vivo; design: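 grade of growth control; 5 = at least 90%; 4 = 70 to 90%; 3 = 50 to 70%; 2 = 30 to 50%; 1 = 10 to 30%; 0 = under 10%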; conditions: 100 g active ingredient per 10 ares, evaluated 14th day after treatment
Procedure, shortened: as §1

[5] = tested on: pale smartweed (Po); assay: as above; assay type: in vivo; design: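 grade of growth control; 5 = at least 90%; 4 = 70 to 90%; 3 = 50 to 70%; 2 = 30 to 50%; 1 = 10 to 30%; 0 = under 10%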; conditions: 100 g active ingredient per 10 ares, evaluated 14th day after treatment
Procedure, shortened: as §1

[6] = tested on: common lambsquarters (Ch); assay: as above; assay type: in vivo; design: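 grade of growth control; 5 = at least 90%; 4 = 70 to 90%; 3 = 50 to 70%; 2 = 30 to 50%; 1 = 10 to 30%; 0 = under 10%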; conditions: 100 g active ingredient per 10 ares, evaluated 14th day after treatment
Procedure, shortened: as §1

[7] = tested on: bulrush (Sc); assay: Test Example 1: herbicidal effects by paddy field soil treatment; assay type: in vivo; conditions: 100 g of the active ingredient per 10 ares, 21st day after the application, index 0-5 of Table 47;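 also: grade of growth control; 5 = at least 90%; 4 = 70 to 90%; 3 = 50 to 70%; 2 = 30 to 50%; 1 = 10 to 30%; 0 = under 10%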
Procedure, shortened: (§2)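 Herbicidal effect was scored against a graded standard 21 days after treatment. Seeds were sown in puddled, leveled paddy soil flooded to 3 cm depth, and the active ingredient was applied at 100 g per 10 ares before greenhouse culture.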

[8] = tested on: barnyardgrass (Ec); assay: as above; assay type: in vivo; conditions: 100 g of the active ingredient per 10 ares, 21st day after the application, index 0-5 of Table 47
Procedure, shortened: as §2

[9] = tested on: monochoria (Mo); assay: as above; assay type: in vivo; conditions: 100 g of the active ingredient per 10 ares, 21st day after the application, index 0-5 of Table 47;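 also: grade of growth control; 5 = at least 90%; 4 = 70 to 90%; 3 = 50 to 70%; 2 = 30 to 50%; 1 = 10 to 30%; 0 = under 10%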
Procedure, shortened: as §2

[10] = tested on: slender amaranth (Am); assay: Test Example 2: herbicidal effects by upland field soil treatment; assay type: in vivo; conditions: 100 g of the active ingredient per 10 ares, evaluated on the 21st day after application;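 also: grade of growth control; 5 = at least 90%; 4 = 70 to 90%; 3 = 50 to 70%; 2 = 30 to 50%; 1 = 10 to 30%; 0 = under 10%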
Text: (§3) (Test on Herbicidal Effects by Upland Field Soil Treatment)

[11] = tested on: Digitaria ciliaris (Di); assay: as above; assay type: in vivo; conditions: 100 g of the active ingredient per 10 ares, evaluated on the 21st day after application;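 also: grade of growth control; 5 = at least 90%; 4 = 70 to 90%; 3 = 50 to 70%; 2 = 30 to 50%; 1 = 10 to 30%; 0 = under 10%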
Text: as §3

[12] = tested on: rice flatsedge (Ci); assay: as above; assay type: in vivo; conditions: 100 g of the active ingredient per 10 ares, evaluated on the 21st day after application
Text: as §3

[13] = tested on: barnyardgrass (Ec); assay: as above; assay type: in vivo; conditions: 100 g of the active ingredient per 10 ares, evaluated on the 21st day after application
Text: as §3

[14] = tested on: pale smartweed (Po); assay: as above; assay type: in vivo; conditions: 100 g of the active ingredient per 10 ares, evaluated on the 21st day after application
Text: as §3

[15] = tested on: common lambsquarters (Ch); assay: as above; assay type: in vivo; conditions: 100 g of the active ingredient per 10 ares, evaluated on the 21st day after application
Text: as §3

melting point [°C]	Structure (SMILES)	Herbicidal effects Am [1]	Herbicidal effects Ci [2]	Herbicidal effects Ec [3]	Herbicidal effects Di [4]	Herbicidal effects Po [5]	Herbicidal effects Ch [6]	Herbicidal effects Sc [7]	Herbicidal effects Ec [8]	Herbicidal effects Mo [9]	Herbicidal effects Am [10]	Herbicidal effects Di [11]	Herbicidal effects Ci [12]	Herbicidal effects Ec [13]	Herbicidal effects Po [14]	Herbicidal effects Ch [15]
138 to 140	Cc1cc2c(Cl)cc(F)c(-c3ccc(C(F)(F)F)n(C)c3=O)c2o1 [Compound No. 5-1, 3-(4-chloro-6-fluoro-2-methylbenzofuran-7-yl)-1-methyl-6-trifluoromethyl-2 (1H)-pyridone]	5	5	5	5	5	5	5	5	5	5	5	5	5	5	5
150 to 151	CC(C)Oc1cc(-c2cn(C)c(C(F)(F)F)cc2=O)c(F)cc1Cl [Compound No. 6-7, 5-(4-chloro-2-fluoro-5-isopropoxyphenyl)-1-methyl-2-trifluoromethyl-4(1H)-pyridone]	5	5	5	5	5	5	5	5	5	5	5	5	5	5	5
152 to 154	Cn1cc(-c2cc(OC3CCCC3)c(Cl)cc2F)c(=O)cc1C(F)(F)F [Compound No. 6-14, 5-(4-chloro-2-fluoro-5-cyclopentyloxyphenyl)-1-methyl-2-trifluoromethyl-4(1H)-pyridone]	5	5	5	5	5	5	5	5	5	5	5	5	5	5	5
